One assay has as its system A. naeslundii. Nature of the assay: Minimal Inhibitory Concentration (MIC) anti-microbial test. The class given is cell-based. The conditions noted are these: Actinomyces naeslundii; single species of A. naeslundii biofilm; read-out: MIC (Minimum Inhibitory Concentration, bactericidal). Here is the method:
The anti-microbial test was measured according to the SOP No. ATO-5308-00 for determination of Minimal Inhibitory Concenctration (MIC).

The test system of the next assay is A. naeslundii biofilm. Nature of the assay: crystal violet assay, anti-biofilm (MBEC). The following applies: single species of A. naeslundii biofilm. The class given is cell-based, Actinomyces naeslundii.

Data on three compounds can be found in patent publication US8617523B2, “Anti-biofilm carbonate compounds for use in oral care compositions” (Colgate-Palmolive Company, priority 2009, dated 2013).

In brackets after ≈: the same amount, converted by molar mass.

Consider `CC(C)C(O)C(C)(C)COC(=O)OC1CCCC1` (stereo not drawn), for which the MIC in the assay on A. naeslundii was 625 µg/mL (≈ 2420 µM). For the same compound, the “MBEC (Minimum Biofilm Eradication Concentration, anti-biofilm)” value (shortened to “MBEC”) with A. naeslundii biofilm is listed as 156 ppm.

As to `CC(CCCC(C)(C)O)CCOC(=O)Oc1ccccc1` (stereo not drawn), the MIC in the assay on A. naeslundii amounted to 156 µg/mL (≈ 530 µM). Besides, in the assay with A. naeslundii biofilm, the “MBEC” value is on record as 78 ppm.

On to `CCCCC(CC)COC(=O)OCCCCCCO` (stereo not drawn), for which the MIC in the assay on A. naeslundii worked out at 78 µg/mL (≈ 284 µM). Besides, the “MBEC” value in the assay with A. naeslundii biofilm is 39 ppm.
